Where two headings read alike, the source gives them in different places.

In test [1] the target is T1, human BChE (Homo sapiens, UniProt P06276).
T1 construct: gift of Dr. F. Nachon (Département de Toxicologie, Armed Forces Biomedical Research Institute, France)
Briefly: Reversible inhibition of human BChE, Ellman method with ATCh, Hunter-Downs analysis. Particulars: for BChE Ks: enzyme-substrate (ATCh) dissociation constant derived from the inhibition kinetics with the compound; for Ki(AChE)/ Ki (BChE): inhibition selectivity, ratio of Ki constants for AChE and BChE. The test is classed as biochemical. Set-up: key to BChE type of inhibition: c, n and m stands for competitive, noncompetitive and mixed type of inhibition; c, n and m stands for competitive, noncompetitive and mixed type of inhibition; c, n and m stands for competitive, noncompetitive and mixed type of inhibition. As for the experimental part: (§1) Purified human BChE and recombinant human AChE were kindly provided by Dr. F. Nachon (Département de Toxicologie, Armed Forces Biomedical Research Institute, France). The concentration of enzymes (BChE: 5.6 μM; AChE: 0.20 μM) was determined as described previously. The concentrated stocks of enzymes were diluted in a phosphate sodium buffer 0.1 M (pH 7.4) containing 0.1% BSA.
(§2) Enzyme activities were measured spectrophotometrically by Ellman method at 412 nm using 0.30 mM DTNB as thiol reagent and ATCh (0.050–0.50 mM) as substrate in 0.1 M phosphate buffer, pH 7.4 [29, 30]. For the inhibition, the reaction mixture also contained cinchonidines or cinchonines (final concentrations 0.020–200 μM, depending on compound). In the case of compounds CD-(pCl) and CN-(pCl), the final content of DMSO was the same in enzyme activity measurement and in inhibition measurements, up to 0.32%. No side interactions of tested compounds with ATCh or DTNB were detected. Measurements were done at 25 °C on a Tecan Infinite M200Pro plate reader (Austria).
(§3) The reversible inhibition of BChE and AChE by cinchonines and cinchonidines was measured by determining the decrease of enzyme activity towards ATCh (0.050–0.50 mM) in their presence. The activities of the enzymes were measured at different substrate concentrations ([S]) in the absence (v0) and presence (vi) of given cinchonines and cinchonidines concentration ([I]) selected to inhibit the enzymes for 20–80%. At least three concentrations of inhibitors for each substrate concentration were used in at least two experiments. The apparent dissociation inhibition constant (Ki,app) was calculated using the Hunter-Downs equation and the linear regression analysis: Ki,app=vi/v0−vi⋅[I]=K(I)+K(I)/K(S)⋅[S] where y-intercept determines the enzyme-inhibitor dissociation constants (K(I)), while x-intercept determines the enzyme-substrate dissociation constant, K(S). The equation was used with the assumption that the substrate, due to relatively low substrate concentrations used in experiments, binds only to the catalytic site, while inhibitor can bind to both sites catalytic and peripheral site. In other words, if the inhibitor competes with substrate for binding to the catalytic site of the enzyme, Ki,app proportionally depend on the substrate concentration. […] The curve means that the inhibitor binds not only to the catalytic or peripheral site but also to intermediates of Michaelis type of the enzyme-substrate complex.
Background: Ellman's reagent forms a yellow product with free thiols.

For the next test, the target named is T2, human AChE (Homo sapiens, UniProt P22303).
T2 construct: gift of Dr. F. Nachon (Département de Toxicologie, Armed Forces Biomedical Research Institute, France)
T2 sequence (P22303 32-614): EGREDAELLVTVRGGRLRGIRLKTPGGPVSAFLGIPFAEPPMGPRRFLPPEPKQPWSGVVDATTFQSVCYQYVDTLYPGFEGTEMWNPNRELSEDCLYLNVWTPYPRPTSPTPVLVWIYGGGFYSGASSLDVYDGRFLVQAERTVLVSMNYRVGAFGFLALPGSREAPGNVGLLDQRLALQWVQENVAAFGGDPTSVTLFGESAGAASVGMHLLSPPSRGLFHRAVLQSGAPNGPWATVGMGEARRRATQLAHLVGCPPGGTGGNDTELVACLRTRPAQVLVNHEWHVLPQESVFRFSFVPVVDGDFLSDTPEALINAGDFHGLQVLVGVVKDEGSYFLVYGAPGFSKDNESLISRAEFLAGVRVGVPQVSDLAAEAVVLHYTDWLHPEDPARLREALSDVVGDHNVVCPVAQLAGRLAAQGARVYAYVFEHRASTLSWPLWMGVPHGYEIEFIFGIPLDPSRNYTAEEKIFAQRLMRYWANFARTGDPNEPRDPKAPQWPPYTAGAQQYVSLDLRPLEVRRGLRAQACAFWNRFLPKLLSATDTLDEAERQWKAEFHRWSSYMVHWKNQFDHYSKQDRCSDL
Nature of the test: Reversible inhibition of human AChE, Ellman method with ATCh, Hunter-Downs analysis. The test is classed as biochemical. Set-up: key to AChE type of inhibition: c, n and m stands for competitive, noncompetitive and mixed type of inhibition; c, n and m stands for competitive, noncompetitive and mixed type of inhibition; c, n and m stands for competitive, noncompetitive and mixed type of inhibition. As to conditions: for Ki: enzyme-inhibitor dissociation constant ± standard error, ATCh 0.050–0.50 mM, pH 7.4, 25 °C; for AChE Ks: enzyme-substrate (ATCh) dissociation constant derived from the inhibition kinetics with the compound; for AChE type of inhibition: symbol in brackets after Ki. On the procedure: as §1, §2, §3

Test [2] addresses T1, human BChE. As to conditions: cited from earlier work.
Setting [3] is: enzyme-inhibitor dissociation constant ± standard error, ATCh 0.050–0.50 mM, pH 7.4, 25 °C.
Where [4] appears, read: substrate concentrations higher than 0.35 mM, deviation from linearity in Hunter-Downs plot.

T1 sequence (P06276 29-602): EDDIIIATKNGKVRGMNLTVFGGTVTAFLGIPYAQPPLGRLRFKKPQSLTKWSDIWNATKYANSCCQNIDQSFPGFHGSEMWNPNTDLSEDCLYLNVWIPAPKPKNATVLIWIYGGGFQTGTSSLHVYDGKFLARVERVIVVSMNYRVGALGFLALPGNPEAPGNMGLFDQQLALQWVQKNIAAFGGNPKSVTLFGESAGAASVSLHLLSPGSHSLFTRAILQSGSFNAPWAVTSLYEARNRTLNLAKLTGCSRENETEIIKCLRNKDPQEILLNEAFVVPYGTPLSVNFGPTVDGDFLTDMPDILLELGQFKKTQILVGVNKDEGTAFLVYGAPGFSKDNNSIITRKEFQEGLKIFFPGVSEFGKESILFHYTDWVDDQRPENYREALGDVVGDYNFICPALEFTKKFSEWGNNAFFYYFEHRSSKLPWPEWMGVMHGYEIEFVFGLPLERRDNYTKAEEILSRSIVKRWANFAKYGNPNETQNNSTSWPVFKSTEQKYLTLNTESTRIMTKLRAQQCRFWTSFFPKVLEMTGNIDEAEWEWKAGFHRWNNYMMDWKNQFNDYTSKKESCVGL

In general, Ki refers to a dissociation constant, usually derived from enzyme kinetics or from competition with a known ligand. In the case of `C=CC1C[N+]2(Cc3ccccc3)CCC1CC2C(O)c1ccnc2ccccc12` (stereo not drawn) [CN-Bzl], the Ki on human BChE [1] (setting [3]) was 2.9 ± 0.3 µM. Also, at human BChE [1], the “BChE Ks” value came to 0.29 ± 0.04 mM and the “Ki(AChE)/ Ki (BChE)” value is recorded as 42. Besides, the “BChE type of inhibition” value on human BChE [1] (symbol in brackets after Ki) is recorded as “c”. Moreover, the “AChE affinity lower than for the highest-affinity compounds” value at human AChE (compared to CD-(mNO2) and CD-(mCH3)) was ~50 times. On human AChE, the affinity, expressed as Ki, was 121 ± 12 µM; the “AChE Ks” value is 1.1 ± 0.4 mM; the “AChE type of inhibition” value is given as “m”.
The compound `C=CC1C[N+]2(C)CCC1CC2C(O)c1ccnc2ccccc12` (stereo not drawn) [CD-Met] returned an inhibition constant Ki on human BChE [1] (setting [3]) of 26 ± 4 µM. Besides, at human BChE [1], the “BChE Ks” value is 0.70 ± 0.22 mM. The “BChE affinity lower compared to CD-(pBr)” value on human BChE [1] (fold lower affinity than CD-(pBr)) is given as “approximately 730 times”. Besides, the “BChE type of inhibition” value on human BChE [1] (symbol in brackets after Ki) is “c”. Besides, at human AChE, the Ki came to 67 ± 6 µM, the “AChE Ks” value stood at 0.70 ± 0.17 mM and the “AChE type of inhibition” value was “c”.
As to `C=CC1C[N+]2(Cc3ccc(Cl)cc3)CCC1CC2C(O)c1ccnc2ccccc12` (stereo not drawn) [CD-(pCl)], at human BChE [1], the inhibition constant (Ki) is ≤ 0.1 µM, the “BChE Ks” value turned out to be 0.42 ± 0.05 mM and the “Ki(AChE)/ Ki (BChE)” value was 350. Moreover, at human BChE [1] (setting [3]), affinity was put at a Ki of 0.1 ± 0.01 µM. On human BChE [1] (symbol in brackets after Ki), the “BChE type of inhibition” value was “c”. At human AChE, the affinity corresponds to a Ki of 37 ± 4 µM and the “AChE type of inhibition” value is on record as “n”.
Take `C=CC1C[N+]2(Cc3ccc(Cl)cc3)CCC1CC2C(O)c1ccnc2ccccc12` (stereo not drawn) [CN-(pCl)]: on human BChE [1] (setting [3]), the affinity, expressed as Ki, was 6.2 ± 0.8 µM. On human BChE [1], the “BChE Ks” value was 0.49 ± 0.12 mM and the “Ki(AChE)/ Ki (BChE)” value came to 6.4. For the same compound, on human BChE [1] (setting [4]), the “BChE type of inhibition” value is listed as “mixed inhibition”. Also, at human BChE [1] (symbol in brackets after Ki), the “BChE type of inhibition” value is on record as “m”. On human AChE, the affinity, expressed as Ki, was 40 ± 4 µM and the “AChE type of inhibition” value is given as “n”.
At human BChE [1] (setting [3]), `C=CC1C[N+]2(Cc3ccc(C)cc3)CCC1CC2C(O)c1ccnc2ccccc12` (stereo not drawn) [CD-(pCH3)] registered an inhibitory constant (Ki) of 0.17 ± 0.02 µM. Further, on human BChE [1], the “BChE Ks” value was found to be 0.38 ± 0.06 mM and the “Ki(AChE)/ Ki (BChE)” value stood at 99. For the same compound, the “BChE type of inhibition” value at human BChE [1] (setting [4]) is recorded as “mixed inhibition”. Besides, the “BChE type of inhibition” value at human BChE [1] (symbol in brackets after Ki) is on record as “m”. Besides, at human AChE, the affinity corresponds to a Ki of 16 ± 1 µM, the “AChE Ks” value was 1.3 ± 0.2 mM and the “AChE type of inhibition” value was “c”.
As for `CCN(CC)C(C)CN1c2ccccc2Sc2ccccc21` (stereo not drawn) [Ethopropazine], the “BChE Ks” value on human BChE [2] was 0.69 ± 0.14 mM. The inhibition constant Ki at human BChE [2] (read-out: BChE Ki) was 0.16 ± 0.03 µM.

Source of the values: article PMC6173406, “Design and evaluation of selective butyrylcholinesterase inhibitors based on Cinchona alkaloid scaffold” (PLoS ONE, 2018).
